Measurements: article PMC6476888, “Design and synthesis of anticancer 1-hydroxynaphthalene-2-carboxanilides with a p53 independent mechanism of action” (Scientific Reports, 2019)
Read-outs that look alike come from different tables or passages of the source.

How the values were obtained:
Assay type in all cases: cell-based, human
[1] = tested on: HCT116^+/+; test: Antiproliferative assay (MTS, 72 h) on HCT116 wild type; details: for IC50: Homo sapiens, HCT-116
[2] = tested on: HCT116^−/−; test: Antiproliferative assay (MTS, 72 h) on HCT116 with p53 deletion; details: for IC50: Homo sapiens, HCT-116, MTS, 72 h incubation
[3] = tested on: HCT116 cells; test: AO/EB staining apoptosis assay; details: HCT116 p53^+/+ and p53^−/−, IC50 concentration
Procedure: Three compounds with a distinct activity were selected for further tests. […] The apoptosis of the cells that were treated with the active compounds was confirmed using the Acridine Orange (AO)/Ethidium Bromide (EB) staining test[70] (Fig. 5).
The dual acridine orange/ethidium bromide (AO/EB) staining method was used for the morphological analysis of apoptosis. The cells were seeded on coverslips at a density of 8·10^5 cells/slide and incubated at 37 °C for 48 h. Then, the medium was removed and solutions of 5 s, 5 u, 7 f and DOX at the IC50 concentration were added. After 24 h, the cells were washed with PBS, and then the cells were incubated in a staining solution (100 μg/mL AO and 100 μg/mL EB in PBS) (Sigma-Aldrich, St. Louis, MO, USA) for 3–4 min. After staining, the coverslips were washed with PBS and fixed with 3.7% paraformaldehyde for 15 min. Observations and photography were performed with a Nikon Eclipse Ni-U fluorescent microscope equipped with the sets of filters for AO and EB (excitation filter 450–490, barrier filter BA520).

[4] = tested on: p53/p21 system in the HCT116 cells; test: Western blot of p53/p21 activation
Procedure: Further exploration of the cell death model was performed by a western blot analysis of protein activation in response to incubation with the tested compound (Figs 6, 7). […] The proapoptotic activation of the p53/p21 system was noticeable after the first 12 hours and then became stronger after 24 h. This effect was not observed in the case of the p53 null cells, which were unable to synthesize this protein.
The HCT116 cells were seeded in 3-cm Petri dishes (Nunc) at a density of 0.5·10^6 cells/well and incubated overnight. […] The cells were harvested by trypsinization and washed with cold PBS. Next, the cells were centrifuged and suspended in an RIPA buffer (Thermo-Fisher Scientific) containing Halt Protease Inhibitor Cocktail (Thermo-Fisher Scientific), Halt Phosphatase Inhibitor Cocktail (Thermo-Fisher Scientific) along with 0.5 M EDTA and lysed for 20 min on ice. Then, the lysates were sonicated, centrifuged at 10,000 rpm for 10 min at 4 °C and the supernatants were collected for further analysis. The protein concentration was determined using a Micro BCA™ Protein Assay Kit (Thermo-Fisher Scientific, Waltham, MA, USA c) according to the manufacturer’s instructions. Equal amounts of the proteins (20 μg) were electrophoresed on SDS-Page gels and transferred onto nitrocellulose membranes. The membranes were blocked in 5% non-fat milk prepared in PBS containing 0.1% Tween-20 (TPBS) for 1 h. After blocking, the membranes were incubated with specific primary antibodies: p21^Waf1/Cip1, p53, cytochrome c, caspase-8, caspase-9, AIF, PARP, GAPDH and β-Actin overnight at 4 °C, and then washed and incubated with horseradish peroxidase (HRP)-conjugated secondary antibodies for 1 h at room temperature. All of the antibodies were purchased from CellSignaling (Danvers, MA, USA) and were diluted 1:1000 in 5% milk in TPBS. Finally, the membranes were washed and incubated with a SuperSignal™ West Pico Chemiluminescent Substrate (Thermo-Fisher Scientific). The chemiluminescence signals were captured using a ChemiDoc™ XRS+ System (Bio-Rad Laboratories, Hercules, CA, USA). The experiments were performed at least three times. Densitometric analysis was performed using ImageJ 1.41 software (Wayne Rasband, National Institutes of Health, USA).

[5] = MTS, 72 h incubation, read-out: Activity IC50 HCT116^+/+
[6] = p53 null cells, after the first 12 hours

Row | SMILES | IC50 [1, 5] [nM] | selectivity towards the p53 null cells (HCT116 p53^−/− vs wild type) [2] | IC50 [2] [nM] | apoptosis (AO/EB staining) [3] | p21 protein amount [4, 6] | IC50 ([1]; submicromolar activity level, read-out: IC50 for the HCT116 wild type) [nM] | p21 protein amount ([4]; either of the lines tested) | selectivity for the wild type over p53 null cells [1]
1 | O=C(Nc1ccc(F)c(Cl)c1)c1ccc2ccccc2c1O [5s] | 6870 ± 2480 | more than eight times more toxic | 830 ± 310 | early and late apoptotic cells | small, insignificant increase |  |  | 
2 | O=C(Nc1cc(C(F)(F)F)cc(C(F)(F)F)c1)c1ccc2ccccc2c1O [7f] | 460 ± 50 |  | 350 ± 80 | early and late apoptotic cells |  | 464 | did not increase p21 | 
3 | O=C(Nc1cc(C(F)(F)F)cc(C(F)(F)F)c1Cl)c1ccc2ccccc2c1O [5u] | 720 ± 280 |  | 2720 ± 630 | early and late apoptotic cells | small, insignificant increase |  |  | roughly four times more active against the wild type
